In one experiment the target is PI 4-kinase beta (Homo sapiens (Human), UniProt Q9UBF8). The note with it: read-out: Assay D PI4Kβ IC50.
A further experiment concerns the target Vps34 (Homo sapiens (Human), UniProt Q8NEB9). The following applies: read-out: Assay C VPS34 IC50.

Each structure is given as a SMILES string. Where a name gives a salt, the structure may show the parent alone.

Experimental findings from patent US10112926B2 (priority 2014, dated 2018) are described below.

The IC50 is the concentration at which inhibition is half-maximal.

Chain of PI 4-kinase beta (Q9UBF8 whole entry): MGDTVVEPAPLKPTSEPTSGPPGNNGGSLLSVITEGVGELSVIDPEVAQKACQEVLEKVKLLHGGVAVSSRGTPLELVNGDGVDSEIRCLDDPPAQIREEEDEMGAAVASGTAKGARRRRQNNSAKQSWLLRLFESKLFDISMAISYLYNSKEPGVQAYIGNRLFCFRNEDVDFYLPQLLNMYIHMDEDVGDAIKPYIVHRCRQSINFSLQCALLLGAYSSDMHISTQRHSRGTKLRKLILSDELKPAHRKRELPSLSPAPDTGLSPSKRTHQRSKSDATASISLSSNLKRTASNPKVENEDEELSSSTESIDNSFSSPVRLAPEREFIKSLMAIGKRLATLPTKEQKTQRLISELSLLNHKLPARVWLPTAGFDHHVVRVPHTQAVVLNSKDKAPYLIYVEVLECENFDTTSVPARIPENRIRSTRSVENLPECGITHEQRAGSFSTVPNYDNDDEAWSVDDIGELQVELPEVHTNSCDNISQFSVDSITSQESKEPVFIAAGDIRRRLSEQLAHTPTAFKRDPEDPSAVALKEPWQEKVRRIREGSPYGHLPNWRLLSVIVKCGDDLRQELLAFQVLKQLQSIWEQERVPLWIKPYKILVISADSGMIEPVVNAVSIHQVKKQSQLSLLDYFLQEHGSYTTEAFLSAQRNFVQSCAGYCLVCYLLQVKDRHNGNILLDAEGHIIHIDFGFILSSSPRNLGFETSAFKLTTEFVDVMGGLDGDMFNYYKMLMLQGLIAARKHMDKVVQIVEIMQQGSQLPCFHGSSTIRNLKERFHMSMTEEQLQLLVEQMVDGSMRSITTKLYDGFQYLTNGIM
Chain of Vps34 (Q8NEB9 whole entry): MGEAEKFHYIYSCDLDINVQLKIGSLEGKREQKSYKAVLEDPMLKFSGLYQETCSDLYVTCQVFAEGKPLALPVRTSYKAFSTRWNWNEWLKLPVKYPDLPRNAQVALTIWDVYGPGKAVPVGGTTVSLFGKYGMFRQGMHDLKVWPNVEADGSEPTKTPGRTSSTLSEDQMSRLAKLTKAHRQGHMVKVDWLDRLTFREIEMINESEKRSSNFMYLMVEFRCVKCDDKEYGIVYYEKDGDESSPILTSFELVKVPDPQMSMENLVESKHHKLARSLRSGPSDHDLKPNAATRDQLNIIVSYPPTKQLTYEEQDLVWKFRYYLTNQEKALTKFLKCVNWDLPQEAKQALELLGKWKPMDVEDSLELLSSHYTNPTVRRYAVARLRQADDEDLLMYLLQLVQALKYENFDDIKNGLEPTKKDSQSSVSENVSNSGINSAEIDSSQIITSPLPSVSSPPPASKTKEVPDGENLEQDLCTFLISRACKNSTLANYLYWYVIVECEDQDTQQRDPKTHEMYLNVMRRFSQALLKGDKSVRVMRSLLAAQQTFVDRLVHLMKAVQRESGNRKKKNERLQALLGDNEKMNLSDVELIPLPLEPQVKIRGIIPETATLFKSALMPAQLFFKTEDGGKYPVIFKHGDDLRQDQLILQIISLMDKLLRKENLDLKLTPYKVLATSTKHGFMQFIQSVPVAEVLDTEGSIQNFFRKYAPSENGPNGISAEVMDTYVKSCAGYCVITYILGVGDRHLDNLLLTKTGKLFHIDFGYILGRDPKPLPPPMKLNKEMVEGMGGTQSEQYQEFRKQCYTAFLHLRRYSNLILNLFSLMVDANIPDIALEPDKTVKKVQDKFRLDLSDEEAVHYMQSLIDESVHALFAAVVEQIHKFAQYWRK

As to `Cc1noc(-c2cc(-c3cc(S(=O)(=O)NCC4(CO)COC4)ccc3C)cnc2N)n1` [Example 52, 3-(6-Amino-5-(3-methyl-1,2,4-oxadiazol-5-yl)pyridin-3-yl)-N-((3-(hydroxymethyl)oxetan-3-yl)methyl)-4-methylbenzenesulfonamide], the half-maximal inhibitory concentration (IC50) at PI 4-kinase beta and on Vps34 was greater than 10 µM each time.
In the case of `Cc1cc(-c2cc(-c3cc(S(=O)(=O)NCC4(CO)CCC4)ccc3C)cnc2N)on1` [Example 37.6, 3-(6-Amino-5-(3-methylisoxazol-5-yl)pyridin-3-yl)-N-((1-(hydroxymethyl)cyclobutyl)methyl)-4-methylbenzenesulfonamide], the IC50 on PI 4-kinase beta was 2.2 µM; on Vps34 it was greater than 10 µM.
Turning to `Cc1nc(-c2cc(-c3cc(S(=O)(=O)NCCC(C)(C)O)ccc3C)cnc2N)cs1` [Example 93, 3-(6-Amino-5-(2-methylthiazol-4-yl)pyridin-3-yl)-N-(3-hydroxy-3-methylbutyl)-4-methylbenzenesulfonamide], the IC50 at PI 4-kinase beta is 7.5 µM; at Vps34, greater than 10 µM.
Turning to `Cc1cc(-c2cc(-c3cc(S(=O)(=O)NCCC4CCOCC4)ccc3C)cnc2N)on1` [Example 19.12, 3-(6-amino-5-(3-methylisoxazol-5-yl)pyridin-3-yl)-4-methyl-N-(2-(tetrahydro-2H-pyran-4-yl)ethyl)benzenesulfon-amide trifluoroacetic acid salt], the IC50 on PI 4-kinase beta was 4.3 µM; on Vps34 it was greater than 10 µM.
The like results for `Cc1cc(-c2cc(-c3cc(S(=O)(=O)NCC4COC4)ccc3C)cnc2N)on1` [Example 25, 3-(6-Amino-5-(3-methylisoxazol-5-yl)pyridin-3-yl)-4-methyl-N-(oxetan-3-ylmethyl)benzenesulfonamide] were, in that order, 1.3 µM and greater than 10 µM.
Take `Cc1nnc(-c2cc(-c3cc(S(=O)(=O)NCCC(C)(C)O)ccc3C)cnc2N)s1` [Example 105, 3-(6-amino-5-(5-methyl-1,3,4-thiadiazol-2-yl)pyridin-3-yl)-N-(3-hydroxy-3-methylbutyl)-4-methylbenzenesulfonamide]: the concentration for half-maximal inhibition (IC50) was 2.9 µM at PI 4-kinase beta and greater than 10 µM on Vps34.
For `Cc1cc(-c2cc(-c3cc(S(=O)(=O)NC4CC4)ccc3C)cnc2N)on1` [Example 31, 3-(6-Amino-5-(3-methylisoxazol-5-yl)pyridin-3-yl)-N-cyclopropyl-4-methylbenzenesulfonamide] the same measures were 1.26 µM and greater than 10 µM.
Take `Cc1nnc(-c2cc(-c3cc(S(=O)(=O)NCC(C)(C)O)ccc3C)cnc2N)s1` [Example 102, 3-(6-amino-5-(5-methyl-1,3,4-thiadiazol-2-yl)pyridin-3-yl)-N-(2-hydroxy-2-methylpropyl)-4-methylbenzenesulfonamide]: the half-maximal inhibitory concentration (IC50) on PI 4-kinase beta is 8.6 µM; on Vps34, greater than 10 µM.
The like results for `Cc1noc(-c2cc(-c3cc(S(=O)(=O)NCC(C)(C)O)ccc3C)cnc2N)n1` [Example 10, 3-(6-Amino-5-(3-methyl-1,2,4-oxadiazol-5-yl)pyridin-3-yl)-N-(2-hydroxy-2-methylpropyl)-4-methylbenzenesulfonamide, hydrochloride salt] were, in that order, greater than 9.8 µM and greater than 9.8 µM.
The like results for `Cc1cc(-c2cc(-c3cc(S(=O)(=O)N4CC(CO)C4)ccc3C)cnc2N)on1` [Example 37.12, (1-((3-(6-Amino-5-(3-methylisoxazol-5-yl)pyridin-3-yl)-4-methylphenyl)sulfonyl)azetidin-3-yl)methanol] were, in that order, 3.4 µM and greater than 10 µM.
For the compound `Cc1noc(-c2cc(-c3cc(S(=O)(=O)NCC4(O)COC4)ccc3C)cnc2N)n1` [Example 56, 3-(6-Amino-5-(3-methyl-1,2,4-oxadiazol-5-yl)pyridin-3-yl)-N-((3-hydroxyoxetan-3-yl)methyl)-4-methylbenzenesulfonamide], the IC50 at PI 4-kinase beta and on Vps34 was greater than 10 µM throughout.
Consider `Cc1noc(-c2cc(-c3cc(S(=O)(=O)NCC4(CO)CCOCC4)ccc3C)cnc2N)n1` [Example 37.10, 3-(6-Amino-5-(3-methyl-1,2,4-oxadiazol-5-yl)pyridin-3-yl)-N-((4-(hydroxymethyl)tetrahydro-2H-pyran-4-yl)methyl)-4-methylbenzenesulfonamide], for which the half-inhibitory concentration (IC50) on PI 4-kinase beta and at Vps34 was greater than 10 µM each time.
Regarding `Cc1noc(-c2cc(-c3cc(S(=O)(=O)NCC4(O)CC4)ccc3C)cnc2N)n1` [Example 37.19, 3-(6-Amino-5-(3-methyl-1,2,4-oxadiazol-5-yl)pyridin-3-yl)-N-((1-hydroxycyclopropyl)methyl)-4-methylbenzenesulfonamide], the half-inhibitory concentration (IC50) on PI 4-kinase beta is 8.6 µM; at Vps34, greater than 10 µM.
The like results for `Cc1noc(-c2cc(-c3cc(S(=O)(=O)NCC4(O)CCOCC4)ccc3C)cnc2N)n1` [Example 51, 3-(6-Amino-5-(3-methyl-1,2,4-oxadiazol-5-yl)pyridin-3-yl)-N-((4-hydroxytetrahydro-2H-pyran-4-yl)methyl)-4-methylbenzenesulfonamide] were, in that order, greater than 10 µM and greater than 10 µM.
The like results for `Cc1ccc(S(=O)(=O)NCC(C)(C)O)cc1-c1cnc(N)c(-c2cc(C3CC3)no2)c1` [Example 35.3, 3-(6-Amino-5-(3-cyclopropylisoxazol-5-yl)pyridin-3-yl)-N-(2-hydroxy-2-methylpropyl)-4-methylbenzenesulfonamide hydrochloride] were, in that order, 1.3 µM and greater than 10 µM.
For `Cc1noc(-c2cc(-c3cc(S(=O)(=O)NCC(C)(C)O)c(F)cc3C)cnc2N)n1` [Example 85, 5-(6-Amino-5-(3-methyl-1,2,4-oxadiazol-5-yl)pyridin-3-yl)-2-fluoro-N-(2-hydroxy-2-methylpropyl)-4-methylbenzenesulfonamide] the same measures were greater than 10 µM and greater than 10 µM.
As for `Cc1ccc(S(=O)(=O)NCC(C)(C)O)cc1-c1cnc(N)c(-n2cncn2)c1` [Example 81, 3-(6-Amino-5-(1H-1,2,4-triazol-1-yl)pyridin-3-yl)-N-(2-hydroxy-2-methylpropyl)-4-methylbenzenesulfonamide hydrochloride], the IC50 at PI 4-kinase beta is greater than 9.78 µM; on Vps34, greater than 9.8 µM.
The like results for `Cc1cc(-c2cc(-c3cc(S(=O)(=O)N[C@@H]4CCNC(=O)C4)ccc3C)cnc2N)on1` [Example 37.4, (R)-3-(6-Amino-5-(3-methylisoxazol-5-yl)pyridin-3-yl)-4-methyl-N-(2-oxopiperidin-4-yl)benzenesulfonamide] were, in that order, 2.4 µM and greater than 10 µM.
As to `Cc1ccc(S(=O)(=O)NCC(C)(C)O)cc1-c1cnc(N)c(-c2cn(C)nn2)c1` [Example 63, 3-(6-Amino-5-(1-methyl-1H-1,2,3-triazol-4-yl)pyridin-3-yl)-N-(2-hydroxy-2-methylpropyl)-4-methylbenzenesulfonamide hydrochloride], the IC50 on PI 4-kinase beta is 9.6 µM; on Vps34 it was greater than 10 µM.
For `Cc1ncc(-c2cc(-c3cc(S(=O)(=O)NCC4COC4)ccc3C)cnc2N)o1` [Example 104.3, 3-(6-amino-5-(2-methyloxazol-5-yl)pyridin-3-yl)-4-methyl-N-(oxetan-3-ylmethyl)benzenesulfon-amide] the same measures were 4.6 µM and 4.7 µM.
